Data reported in ChEMBL document CHEMBL1141126, “Improving the antiviral efficacy and selectivity of HIV-1 reverse transcriptase inhibitor TSAO-T by the introduction of functional groups at the N-3 position” (J Med Chem, 2005).

system: Human immunodeficiency virus 2; assay: Effective concentration required to inhibit HIV-2 induced cytopathicity in human CEM cell line; type: functional, organism-based; details: Human immunodeficiency virus 2, CCRF-CEM

| Compound | EC50 [µM] |
| --- | --- |
| Cc1cn([C@@H]2O[C@H](CO[Si](C)(C)C(C)(C)C)[C@@]3(OS(=O)(=O)C=C3N)[C@H]2O[Si](C)(C)C(C)(C)C)c(=O)n(CCCNC(=O)OCc2ccccc2)c1=O | > 50 |
| Cc1cn([C@@H]2O[C@H](CO[Si](C)(C)C(C)(C)C)[C@@]3(OS(=O)(=O)C=C3N)[C@H]2O[Si](C)(C)C(C)(C)C)c(=O)n(CCc2cccc3cc[nH]c23)c1=O | > 50 |
| Cc1cn([C@@H]2O[C@H](CO[Si](C)(C)C(C)(C)C)[C@@]3(OS(=O)(=O)C=C3N)[C@H]2O[Si](C)(C)C(C)(C)C)c(=O)n(CCCN2C(=O)c3ccccc3C2=O)c1=O | > 250 |

target: Human immunodeficiency virus type 1 reverse transcriptase (Human immunodeficiency virus 1, UniProt Q72547); assay: Inhibitory concentration required to inhibit recombinant HIV-1 reverse transcriptase; details: not given

| Compound | IC50 [µM] |
| --- | --- |
| Cc1cn([C@@H]2O[C@H](CO[Si](C)(C)C(C)(C)C)[C@@]3(OS(=O)(=O)C=C3N)[C@H]2O[Si](C)(C)C(C)(C)C)c(=O)n(CCCNC(=O)OCc2ccccc2)c1=O | > 500 |
| Cc1cn([C@@H]2O[C@H](CO[Si](C)(C)C(C)(C)C)[C@@]3(OS(=O)(=O)C=C3N)[C@H]2O[Si](C)(C)C(C)(C)C)c(=O)n(CCc2cccc3cc[nH]c23)c1=O | > 500 |
| Cc1cn([C@@H]2O[C@H](CO[Si](C)(C)C(C)(C)C)[C@@]3(OS(=O)(=O)C=C3N)[C@H]2O[Si](C)(C)C(C)(C)C)c(=O)n(CCCN2C(=O)c3ccccc3C2=O)c1=O | > 500 |

system: CCRF-CEM; assay: Ratio of cytostatic concentration to effective concentration in human CEM cell line; type: functional; details: not given

| Compound | SI |
| --- | --- |
| Cc1cn([C@@H]2O[C@H](CO[Si](C)(C)C(C)(C)C)[C@@]3(OS(=O)(=O)C=C3N)[C@H]2O[Si](C)(C)C(C)(C)C)c(=O)n(CCCNC(=O)OCc2ccccc2)c1=O | 1526 |
| Cc1cn([C@@H]2O[C@H](CO[Si](C)(C)C(C)(C)C)[C@@]3(OS(=O)(=O)C=C3N)[C@H]2O[Si](C)(C)C(C)(C)C)c(=O)n(CCc2cccc3cc[nH]c23)c1=O | 81 |
| Cc1cn([C@@H]2O[C@H](CO[Si](C)(C)C(C)(C)C)[C@@]3(OS(=O)(=O)C=C3N)[C@H]2O[Si](C)(C)C(C)(C)C)c(=O)n(CCCN2C(=O)c3ccccc3C2=O)c1=O | >2272 |

system: Human immunodeficiency virus 1; assay: Effective concentration required to inhibit HIV-1/138K induced cytopathicity in human CEM cell line; type: functional, organism-based; details: Human immunodeficiency virus 1, CCRF-CEM

| Compound | EC50 [µM] |
| --- | --- |
| Cc1cn([C@@H]2O[C@H](CO[Si](C)(C)C(C)(C)C)[C@@]3(OS(=O)(=O)C=C3N)[C@H]2O[Si](C)(C)C(C)(C)C)c(=O)n(CCCNC(=O)OCc2ccccc2)c1=O | > 50 |
| Cc1cn([C@@H]2O[C@H](CO[Si](C)(C)C(C)(C)C)[C@@]3(OS(=O)(=O)C=C3N)[C@H]2O[Si](C)(C)C(C)(C)C)c(=O)n(CCc2cccc3cc[nH]c23)c1=O | > 50 |
| Cc1cn([C@@H]2O[C@H](CO[Si](C)(C)C(C)(C)C)[C@@]3(OS(=O)(=O)C=C3N)[C@H]2O[Si](C)(C)C(C)(C)C)c(=O)n(CCCN2C(=O)c3ccccc3C2=O)c1=O | > 250 |

system: Human immunodeficiency virus 2; assay: Effective concentration required to inhibit HIV-2 induced cytopathicity in human MT-4 cell line; type: functional, organism-based; details: Human immunodeficiency virus 2, MT4

| Compound | EC50 [µM] |
| --- | --- |
| Cc1cn([C@@H]2O[C@H](CO[Si](C)(C)C(C)(C)C)[C@@]3(OS(=O)(=O)C=C3N)[C@H]2O[Si](C)(C)C(C)(C)C)c(=O)n(CCCNC(=O)OCc2ccccc2)c1=O | > 50 |
| Cc1cn([C@@H]2O[C@H](CO[Si](C)(C)C(C)(C)C)[C@@]3(OS(=O)(=O)C=C3N)[C@H]2O[Si](C)(C)C(C)(C)C)c(=O)n(CCc2cccc3cc[nH]c23)c1=O | > 10 |
| Cc1cn([C@@H]2O[C@H](CO[Si](C)(C)C(C)(C)C)[C@@]3(OS(=O)(=O)C=C3N)[C@H]2O[Si](C)(C)C(C)(C)C)c(=O)n(CCCN2C(=O)c3ccccc3C2=O)c1=O | > 250 |

system: Human immunodeficiency virus 1; assay: Effective concentration required to inhibit HIV-1 induced cytopathicity in human MT-4 cell line; type: functional, organism-based; details: Human immunodeficiency virus 1, MT4

| Compound | EC50 [µM] |
| --- | --- |
| Cc1cn([C@@H]2O[C@H](CO[Si](C)(C)C(C)(C)C)[C@@]3(OS(=O)(=O)C=C3N)[C@H]2O[Si](C)(C)C(C)(C)C)c(=O)n(CCCNC(=O)OCc2ccccc2)c1=O | 0.17 |
| Cc1cn([C@@H]2O[C@H](CO[Si](C)(C)C(C)(C)C)[C@@]3(OS(=O)(=O)C=C3N)[C@H]2O[Si](C)(C)C(C)(C)C)c(=O)n(CCc2cccc3cc[nH]c23)c1=O | 0.96 |
| Cc1cn([C@@H]2O[C@H](CO[Si](C)(C)C(C)(C)C)[C@@]3(OS(=O)(=O)C=C3N)[C@H]2O[Si](C)(C)C(C)(C)C)c(=O)n(CCCN2C(=O)c3ccccc3C2=O)c1=O | 0.29 |

system: Human immunodeficiency virus 1; assay: Effective concentration required to inhibit HIV-1 induced cytopathicity in human CEM cell line; type: functional, organism-based; details: Human immunodeficiency virus 1, CCRF-CEM

| Compound | EC50 [µM] |
| --- | --- |
| Cc1cn([C@@H]2O[C@H](CO[Si](C)(C)C(C)(C)C)[C@@]3(OS(=O)(=O)C=C3N)[C@H]2O[Si](C)(C)C(C)(C)C)c(=O)n(CCCNC(=O)OCc2ccccc2)c1=O | 0.15 |
| Cc1cn([C@@H]2O[C@H](CO[Si](C)(C)C(C)(C)C)[C@@]3(OS(=O)(=O)C=C3N)[C@H]2O[Si](C)(C)C(C)(C)C)c(=O)n(CCc2cccc3cc[nH]c23)c1=O | 0.34 |
| Cc1cn([C@@H]2O[C@H](CO[Si](C)(C)C(C)(C)C)[C@@]3(OS(=O)(=O)C=C3N)[C@H]2O[Si](C)(C)C(C)(C)C)c(=O)n(CCCN2C(=O)c3ccccc3C2=O)c1=O | 0.11 |

system: CCRF-CEM; assay: Cytostatic concentration required to inhibit cell proliferation in human CEM cell line; type: functional; details: not given

| Compound | CC50 [µM] |
| --- | --- |
| Cc1cn([C@@H]2O[C@H](CO[Si](C)(C)C(C)(C)C)[C@@]3(OS(=O)(=O)C=C3N)[C@H]2O[Si](C)(C)C(C)(C)C)c(=O)n(CCCNC(=O)OCc2ccccc2)c1=O | 229 |
| Cc1cn([C@@H]2O[C@H](CO[Si](C)(C)C(C)(C)C)[C@@]3(OS(=O)(=O)C=C3N)[C@H]2O[Si](C)(C)C(C)(C)C)c(=O)n(CCc2cccc3cc[nH]c23)c1=O | 27.6 |
| Cc1cn([C@@H]2O[C@H](CO[Si](C)(C)C(C)(C)C)[C@@]3(OS(=O)(=O)C=C3N)[C@H]2O[Si](C)(C)C(C)(C)C)c(=O)n(CCCN2C(=O)c3ccccc3C2=O)c1=O | > 250 |
